From US8637484B2, “Modulation of growth hormone receptor expression and insulin-like growth factor expression” (Antisense Therapeutic Limited, priority 2003, dated 2014)
In the oligonucleotide strings, read from the 5' end, every base follows the letter of its sugar. An asterisk marks phosphorothioate; unmarked linkages are phosphodiester. Other units and linkages are bracketed, terminal groups are in braces. A string of capitals states the bases alone. e = 2'-O-(2-methoxyethyl) (MOE); [5mC] = 5-methylcytosine; d = 2'-deoxy (DNA)

tested on: human growth hormone receptor mRNA; test: Inhibition of human growth hormone receptor mRNA levels in MCF7 cells, quantitative real-time PCR; type: cell-based; parameters: concentration or dose not given beside the values; conditions: averages from three experiments
Procedure: The human breast carcinoma cell line MCF-7 was obtained from the American Type Culture Collection (Manassas, Va.). MCF-7 cells were routinely cultured in DMEM low glucose (Gibco/Life Technologies, Gaithersburg, Md.) supplemented with 10% fetal calf serum (Gibco/Life Technologies, Gaithersburg, Md.). Cells were routinely passaged by trypsinization and dilution when they reached 90% confluence. Cells were seeded into 96-well plates (Falcon-Primaria #3872) at a density of 7000 cells/well for use in RT-PCR analysis.
When cells reached 65-75% confluency, they were treated with oligonucleotide. For cells grown in 96-well plates, wells were washed once with 100 μL OPTI-MEM™-1 reduced-serum medium (Invitrogen Corporation, Carlsbad, Calif.) and then treated with 130 μL of OPTI-MEM™-1 containing 3.75 μg/mL LIPOFECTIN™ (Invitrogen Corporation, Carlsbad, Calif.) and the desired concentration of oligonucleotide. Cells are treated and data are obtained in triplicate. After 4-7 hours of treatment at 37° C., the medium was replaced with fresh medium. Cells were harvested 16-24 hours after oligonucleotide treatment.
Total RNA was isolated using an RNEASY 96™ kit and buffers purchased from Qiagen Inc. (Valencia, Calif.) following the manufacturer's recommended procedures. Briefly, for cells grown on 96-well plates, growth medium was removed from the cells and each well was washed with 200 μL cold PBS. 150 μL Buffer RLT was added to each well and the plate vigorously agitated for 20 seconds. 150 μL of 70% ethanol was then added to each well and the contents mixed by pipetting three times up and down. The samples were then transferred to the RNEASY 96™ well plate attached to a QIAVAC™ manifold fitted with a waste collection tray and attached to a vacuum source. Vacuum was applied for 1 minute. 500 μL of Buffer RW1 was added to each well of the RNEASY 96™ plate and incubated for 15 minutes and the vacuum was again applied for 1 minute. An additional 500 μL of Buffer RW1 was added to each well of the RNEASY 96™ plate and the vacuum was applied for 2 minutes. 1 mL of Buffer RPE was then added to each well of the RNEASY 96™ plate and the vacuum applied for a period of 90 seconds. The Buffer RPE wash was then repeated and the vacuum was applied for an additional 3 minutes. The plate was then removed from the QIAVAC™ manifold and blotted dry on paper towels. The plate was then re-attached to the QIAVAC™ manifold fitted with a collection tube rack containing 1.2 mL collection tubes. RNA was then eluted by pipetting 140 μL of RNAse free water into each well, incubating 1 minute, and then applying the vacuum for 3 minutes.
Quantitation of growth hormone receptor mRNA levels was accomplished by real-time quantitative PCR using the ABI PRISM™ 7600, 7700, or 7900 Sequence Detection System (PE-Applied Biosystems, Foster City, Calif.) according to manufacturer's instructions. This is a closed-tube, non-gel-based, fluorescence detection system which allows high-throughput quantitation of polymerase chain reaction (PCR) products in real-time. As opposed to standard PCR in which amplification products are quantitated after the PCR is completed, products in real-time quantitative PCR are quantitated as they accumulate. This is accomplished by including in the PCR reaction an oligonucleotide probe that anneals specifically between the forward and reverse PCR primers, and contains two fluorescent dyes. A reporter dye (e.g., FAM or JOE, obtained from either PE-Applied Biosystems, Foster City, Calif., Operon Technologies Inc., Alameda, Calif. or Integrated DNA Technologies Inc., Coralville, Iowa) is attached to the 5′ end of the probe and a quencher dye (e.g., TAMRA, obtained from either PE-Applied Biosystems, Foster City, Calif., Operon Technologies Inc., Alameda, Calif. or Integrated DNA Technologies Inc., Coralville, Iowa) is attached to the 3′ end of the probe. When the probe and dyes are intact, reporter dye emission is quenched by the proximity of the 3′ quencher dye. […]

Substance | % INHIB [%]
272323 (antisense eT*eG*eT*eG*eT*d[5mC]*dT*dG*dA*dT*dT*d[5mC]*d[5mC]*dT*d[5mC]*eA*eG*eT*e[5mC]*eT) [compound 272323] | 67
272324 (antisense eT*eA*eT*eG*eT*d[5mC]*dA*dT*dT*dG*dG*d[5mC]*dA*dT*dT*eG*eA*eA*eA*eT) [compound 272324] | 53
272325 (antisense eA*eA*eG*eG*e[5mC]*dA*dT*dA*dA*dG*dA*dG*dA*dT*d[5mC]*eT*eG*e[5mC]*eT*eT) [compound 272325] | 66
272326 (antisense eA*e[5mC]*eT*e[5mC]*eA*dG*d[5mC]*dT*d[5mC]*d[5mC]*dT*dT*d[5mC]*dA*dG*eT*eA*eG*eG*eA) [compound 272326] | 77
272327 (antisense eG*eG*eA*e[5mC]*eA*dT*d[5mC]*d[5mC]*d[5mC]*dT*dG*d[5mC]*d[5mC]*dT*dT*eA*eT*eT*e[5mC]*eT) [compound 272327] | 60
272328 (antisense eG*eG*e[5mC]*eA*eT*dT*dG*dT*d[5mC]*d[5mC]*dA*dT*dA*dA*dG*eG*eA*eA*eG*eT) [compound 272328] | 85
272329 (antisense eA*e[5mC]*eT*eT*eT*dT*dT*dG*dG*d[5mC]*dA*dT*d[5mC]*dT*dG*e[5mC]*e[5mC]*eT*e[5mC]*eA) [compound 272329] | 63
272330 (antisense eG*eA*eT*eG*e[5mC]*dA*d[5mC]*dT*dT*dT*dT*dT*dG*dG*d[5mC]*eA*eT*e[5mC]*eT*eG) [compound 272330] | 47
272331 (antisense e[5mC]*eA*eG*eT*e[5mC]*dG*d[5mC]*dA*dT*dT*dG*dA*dG*dT*dA*eT*eG*eA*eG*eG) [compound 272331] | 67
272332 (antisense e[5mC]*eT*e[5mC]*eT*eT*dT*dG*dT*d[5mC]*dA*dG*dG*d[5mC]*dA*dA*eG*eG*eG*e[5mC]*eA) [compound 272332] | 75
272333 (antisense eG*eT*eG*e[5mC]*eT*d[5mC]*dA*d[5mC]*dA*dT*dA*dG*d[5mC]*d[5mC]*dA*e[5mC]*eA*eT*eG*eA) [compound 272333] | 72
272334 (antisense eA*eA*eG*eA*eA*dA*dG*dG*d[5mC]*dT*dA*dA*dG*dG*d[5mC]*eA*eT*eG*eA*eT) [compound 272334] | 61
272335 (antisense eA*eA*eA*eT*eA*d[5mC]*dG*dT*dA*dG*d[5mC]*dT*d[5mC]*dT*dT*eG*eG*eG*eA*eA) [compound 272335] | 47
272336 (antisense e[5mC]*eA*eA*eT*e[5mC]*dA*d[5mC]*dT*dG*d[5mC]*dT*dA*d[5mC]*dT*dA*eA*eA*e[5mC]*eA*eG) [compound 272336] | 69
272337 (antisense eA*eA*eA*e[5mC]*eA*dT*dA*dG*d[5mC]*d[5mC]*dA*dT*dT*d[5mC]*dA*eA*eT*eG*e[5mC]*eT) [compound 272337] | 39
272338 (antisense eG*eT*eG*e[5mC]*eT*dA*dT*dG*dG*dT*dT*dT*dG*d[5mC]*dA*eT*eT*e[5mC]*eA*eA) [compound 272338] | 78
272339 (antisense eG*eT*eT*eT*eT*dA*d[5mC]*dA*dT*dA*dT*d[5mC]*d[5mC]*dA*dA*eA*e[5mC]*eT*eA*eT) [compound 272339] | 72
272340 (antisense e[5mC]*eA*eT*e[5mC]*eA*dA*d[5mC]*d[5mC]*dA*dA*dG*dA*dT*dT*dT*eG*eG*eT*eG*eA) [compound 272340] | 69
272341 (antisense eG*eA*eG*eG*e[5mC]*dT*dA*dT*dA*dG*dA*dT*d[5mC]*dT*dT*eA*eT*e[5mC]*eT*e[5mC]) [compound 272341] | 65
272342 (antisense eT*eA*eG*eT*eG*dA*dG*dA*dA*dA*dG*dA*dA*dA*dG*eT*eT*eT*e[5mC]*eT) [compound 272342] | 45

Substance | % INHIB [%]
272343 (antisense eA*eA*eT*eG*e[5mC]*dT*d[5mC]*dT*d[5mC]*dA*dA*dG*dA*dA*dT*eG*eA*eT*eG*eT) [compound 272343] | 48
272344 (antisense eA*e[5mC]*eA*e[5mC]*eT*d[5mC]*dA*dA*dT*dT*d[5mC]*dT*dA*dG*d[5mC]*eT*eT*eT*eT*e[5mC]) [compound 272344] | 60
272345 (antisense e[5mC]*eA*eT*e[5mC]*eT*dA*dT*dT*dA*d[5mC]*dA*dA*dA*dT*dA*eA*e[5mC]*eA*eT*eG) [compound 272345] | 24
272346 (antisense e[5mC]*eT*e[5mC]*eT*eT*dG*dG*dA*dG*dA*dA*dA*dA*d[5mC]*d[5mC]*eA*eT*eA*eG*e[5mC]) [compound 272346] | 67
272347 (antisense eT*e[5mC]*eT*eA*e[5mC]*dA*d[5mC]*dT*dG*dA*dT*dG*dA*dT*dA*e[5mC]*eT*eT*eT*eA) [compound 272347] | 62
272348 (antisense e[5mC]*eA*e[5mC]*eA*eG*d[5mC]*dT*dT*dT*dG*dA*dA*dT*dT*dG*eA*eA*eT*eT*eA) [compound 272348] | 57
272349 (antisense eA*eG*eT*e[5mC]*eT*dT*d[5mC]*d[5mC]*dA*dA*dA*d[5mC]*dA*d[5mC]*dA*e[5mC]*eA*eG*e[5mC]*eT) [compound 272349] | 68
272350 (antisense eA*eG*eG*e[5mC]*eT*dG*dT*dT*dG*dT*dG*dA*dA*dA*dT*eA*eG*eT*eA*eA) [compound 272350] | 67
272351 (antisense eA*eT*eA*eG*eA*dA*dA*dT*dG*dT*dT*dG*dT*d[5mC]*dA*eG*eG*e[5mC]*eT*eG) [compound 272351] | 57
272352 (antisense e[5mC]*e[5mC]*eA*eA*eA*dA*dT*dG*dA*d[5mC]*dA*dT*dT*d[5mC]*dT*eG*eA*eG*eA*e[5mC]) [compound 272352] | 77
272353 (antisense eA*eT*eA*eA*eT*dG*dG*d[5mC]*dT*dT*dA*dT*dG*dT*dG*eG*e[5mC]*e[5mC]*eA*e[5mC]) [compound 272353] | 72
272354 (antisense eA*eG*eT*eT*eA*dT*dG*dT*dG*dA*d[5mC]*d[5mC]*d[5mC]*dT*dG*eA*eT*eT*eG*eA) [compound 272354] | 65
272355 (antisense eT*eT*eG*eA*eG*dT*dG*dT*dT*d[5mC]*d[5mC]*dT*dA*dA*dA*eA*eT*eG*eA*eA) [compound 272355] | 24
272356 (antisense eA*eT*eG*eG*eA*dG*dG*d[5mC]*dT*dG*dG*dA*dG*dG*dT*eT*e[5mC]*eA*eA*eA) [compound 272356] | 63
272357 (antisense eT*eA*eG*eG*eG*dT*d[5mC]*d[5mC]*dA*dT*d[5mC]*dT*dT*dT*d[5mC]*eA*eA*eG*eA*e[5mC]) [compound 272357] | 62
272358 (antisense eT*e[5mC]*eT*e[5mC]*e[5mC]*dA*dG*dA*dT*dA*dG*dA*dA*dT*d[5mC]*eT*eA*eA*eA*e[5mC]) [compound 272358] | 53
272359 (antisense eT*e[5mC]*e[5mC]*eA*eA*dA*dT*dA*dT*dT*d[5mC]*dT*dG*dG*dT*eA*e[5mC]*eT*eT*eT) [compound 272359] | 72
272360 (antisense eT*eA*eT*eT*eA*dG*dT*dT*dA*d[5mC]*d[5mC]*dT*dT*dG*dA*eG*eG*eA*eG*eA) [compound 272360] | 0
272361 (antisense eA*eT*eT*eT*eT*d[5mC]*d[5mC]*dT*dT*d[5mC]*d[5mC]*dT*dA*dG*dA*eA*eA*eA*eT*eA) [compound 272361] | 10
